Earlier results on two compounds are cited in article PMC4876928 (Clinical cancer research : an official journal of the …, 2016).

The test system of this series is malignant pleural mesothelioma. Conditions: MPM previously treated with chemotherapy, second-line; cited from earlier work.

Consider `CCC1=C[C@@H]2CN(C1)Cc1c([nH]c3ccccc13)[C@@](C(=O)OC)(c1cc3c(cc1OC)N(C)[C@H]1[C@@](O)(C(=O)OC)[C@H](OC(C)=O)[C@]4(CC)C=CCN5CC[C@]31[C@@H]54)C2` [vinorelbine], for which the response rate is recorded as 2%.

As to `Nc1ccn([C@@H]2O[C@H](CO)[C@@H](O)C2(F)F)c(=O)n1` [gemcitabine], the response rate is listed as 2%.
